# Assay results taken from US7879838B2, “Heteroaryl substituted pyrazinyl-piperazine-piperidines with CXCR3 antagonist activity” (Schering Corporation, priority 2005, dated 2011).
# Target: T1, Human CXCR3 (N-delta 4) (Homo sapiens, UniProt P49682)
# T1 construct: CD8 leader (N); Flag tag; expressed in transfected cells; membranes prepared
# T1 sequence (P49682 5-368 limits assumed): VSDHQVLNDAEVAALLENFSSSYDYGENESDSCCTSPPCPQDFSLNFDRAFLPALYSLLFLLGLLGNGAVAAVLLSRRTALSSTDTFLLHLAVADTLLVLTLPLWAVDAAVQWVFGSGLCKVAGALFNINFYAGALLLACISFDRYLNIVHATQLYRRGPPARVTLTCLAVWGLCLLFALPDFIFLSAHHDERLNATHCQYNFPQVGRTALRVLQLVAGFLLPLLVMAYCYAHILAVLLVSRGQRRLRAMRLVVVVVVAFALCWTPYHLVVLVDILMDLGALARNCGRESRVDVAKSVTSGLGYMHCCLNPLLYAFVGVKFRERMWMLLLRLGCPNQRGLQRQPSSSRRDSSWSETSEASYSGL
# Assay: Human CXCR3 (N-delta 4) scintillation proximity assay (SPA), [125I] IP-10 binding to Ba/F3-hCXCR3 membranes
# Settings: IC50 rating; 25 pM [125I] IP-10, membranes of Ba/F3 cells expressing human CXCR3 (N-delta 4)
# Excerpt: The inventive compounds can readily be evaluated to determine activity at The CXCR3 receptors by known methods, such as, for example, Development of Human CXCR3 (N-delta 4) Binding Assay.
# Cloning and Expression of Human CXCR3 (N-delta 4):
# The DNA encoding human CXCR3 was cloned by PCR using human genomic DNA (Promega, Madison, Wis.) as a template. The PCR primers were designed based on the published sequence of human orphan receptor GPR9 (1) with incorporated restriction sites, a Kozak consensus sequence, CD8 leader and Flag tag. The PCR product was subcloned into the mammalian expression vector pME18Sneo, a derivative of the SR-alpha expression vector (designated as pME18Sneo-hCXCR3 (N-delta 4).
# IL-3-dependent mouse pro-B cells Ba/F3 were transfected by electroporation in 0.4 ml Dulbecco's PBS containing 4×10^6 cells with 20 μg of pME18Sneo-hCXCR3 (N-delta 4) plasmid DNA. Cells were pulsed at 400 Volts, 100 OHMs, 960 μFd. The transfected cells were under selection with 1 mg/ml G418 (Life Technologies, Gaithersburg, Md.). G418-resistant Ba/F3 clones were screened for CXCR3 expression by specific binding of [^125I] IP-10 (NEN Life Science Products, Boston, Mass.).
# Preparation of Ba/F3-hCXCR3 (N-delta 4) Membranes
# Ba/F3 cells expressing human CXCR3 (N-delta 4) were pelleted and resuspended in the lysis buffer containing 10 mM HEPES, pH 7.5 and Complete® protease inhibitors (1 tablet per 100 ml) (Boehringer Mannheim, Indianapolis, Ind.) at a cell density of 20×10^6 cells per ml. After 5 minutes incubation on ice, cells were transferred to 4639 cell disruption bomb (Parr Instrument, Moline, Ill.) and applied with 1,500 psi of nitrogen for 30 minutes on ice. Large cellular debris was removed by centrifugation at 1,000×g. Cell membrane in the supernatant was sedimented at 100,000×g. The membrane was resuspended in the lysis buffer supplemented with 10% sucrose and stored at −80° C. Total protein concentration of the membrane was determined by BCA method from Pierce (Rockford, Ill.).
# Human CXCR3 (N-delta 4) Scintillation Proximity Assay (SPA)
# For each assay point, 2 μg of membrane was preincubated for 1 hr with 300 μg wheat germ agglutinin (WGA) coated SPA beads (Amersham, Arlington Heights, Ill.) in the binding buffer (50 mM HEPES, 1 mM CaCl2, 5 mM MgCl2, 125 mM NaCl, 0.002% NaN3, 1.0% BSA) at room temperature. The beads were spun down, washed once, resuspended in the binding buffer and transferred to a 96-well Isoplate (Wallac, Gaithersburg, Md.). 25 pM of [^125I] IP-10 with tested compounds in a series of titration were added to start the reaction. After 3 hr reaction at room temperature, the amount of [^125I] IP-10 bound to the SPA beads was determined with a Wallac 1450 Microbeta counter.
# The Ki values for the various example compounds of the present invention are given in the afore-mentioned Table 1. From these values, it would be apparent to the skilled artisan that the compounds of the invention have excellent utility CXCR3 antagonists.
row,IC50,Structure (SMILES)
1,> 100 nM,CC[C@H]1CN(c2ncc(C(=O)O)nc2Cl)CCN1C1CCN(C(=O)c2ccc(Cl)nc2N)CC1 [compound 99]
2,> 100 nM,CC[C@H]1CN(c2nc(N)c(C(=O)Nc3cc(O)[nH]n3)nc2Cl)CCN1C1CCN(C(=O)c2ccc(Cl)nc2N)CC1 [compound 100]
3,> 100 nM,CC[C@H]1CN(c2nc(N)c(C(=O)NC(=N)n3cccn3)nc2Cl)CCN1C1CCN(C(=O)c2ccc(Cl)nc2N)CC1 [compound 101]
4,> 100 nM,CC[C@H]1CN(c2nc(N)c(C(=O)NN)nc2Cl)CCN1C1CCN(C(=O)c2c(C)noc2C)CC1 [compound 102]
5,> 100 nM,CC[C@H]1CN(c2nc(N)c(C(=O)NCCO)nc2Cl)CCN1C1CCN(C(=O)c2ccc(C)nc2O)CC1 [compound 103]
6,> 100 nM,CC[C@H]1CN(c2nc(N)c(C(=O)NCCO)nc2Cl)CCN1C1CCN(Cc2ccc3nccn3c2)CC1 [compound 104]
7,> 100 nM,CC[C@H]1CN(c2nc(NCC3CC3)c(C(=O)OC)nc2Cl)CCN1C1CCN(C(=O)c2ccc(Cl)nc2N)CC1 [compound 105]
8,> 100 nM,CC[C@H]1CN(c2nc(N)c(C(=O)NCCO)nc2Cl)CCN1C1CCN(C(=O)c2ccc(C(N)=O)nc2N)CC1 [compound 106]
9,> 100 nM,CC[C@H]1CN(c2nc(N)c(C(N)=O)nc2Cl)CCN1C1CCN(C(=O)c2ccc(-n3cncn3)nc2)CC1 [compound 107]
10,> 100 nM,CC[C@H]1CN(c2nc(N)c(C(=O)NC)nc2Cl)CCN1C1CCN(Cc2cc(Cl)nc(Cl)c2)CC1 [compound 108]
11,> 100 nM,CC[C@H]1CN(c2nc(N)c(C(=O)O)nc2Cl)CCN1C1CCN(C(=O)c2ccc(Cl)nc2N)CC1 [compound 109]
12,> 100 nM,CC[C@H]1CN(c2nc(N)c(C(=O)NC)nc2Cl)CCN1C1CCN(C(=O)c2ccnc(Cl)c2)CC1 [compound 110]
13,> 100 nM,CC[C@H]1CN(c2nc(N)c(C(=O)NN)nc2Cl)CCN1C1CCN(S(=O)(=O)c2c(C)noc2C)CC1 [compound 111]
14,> 100 nM,CC[C@H]1CN(c2nc(N)c(C(=O)NC)nc2Cl)CCN1C1CCN(C(=O)c2cnc(C)cn2)CC1 [compound 112]
15,> 100 nM,CC[C@H]1CN(c2nc(N)c(C(N)=O)nc2Cl)CCN1C1CCN(CC2COc3ccccc3O2)CC1 (stereo partly shown) [compound 113]
16,> 100 nM,CC[C@H]1CN(c2nc(N)c(C(N)=O)nc2Cl)CCN1C1CCN(C(=O)c2ccc(Cl)n3ccnc23)CC1 [compound 114]
17,> 100 nM,CC[C@H]1CN(c2nc(N)c(C(N)=O)nc2Cl)CCN1C1CCN(C(=O)c2ncc(C)nc2N)CC1 [compound 115]
18,> 100 nM,CC[C@H]1CN(c2nc(N)c(C(=O)NC)nc2Cl)CCN1C1CCN(C(=O)c2cc(Cl)nc(Cl)c2)CC1 [compound 116]
19,> 100 nM,CC[C@H]1CN(c2nc(N)c(C(=O)NCCO)nc2Cl)CCN1C1CCN(C(=O)c2nccnc2N)CC1 [compound 117]
20,< 25 nM,CC[C@H]1CN(c2ncc(C(=O)NC(C)C)nc2Cl)CCN1C1CCN(C(=O)c2ccc(Cl)nc2N)CC1 [compound 118]
21,< 25 nM,CC[C@H]1CN(c2ncc(C(=O)NC3CC3)nc2Cl)CCN1C1CCN(C(=O)c2ccc(Cl)nc2N)CC1 [compound 119]
22,< 25 nM,CC[C@H]1CN(c2ncc(C(=O)NC(C)(C)C)nc2Cl)CCN1C1CCN(C(=O)c2ccc(Cl)nc2N)CC1 [compound 120]
23,< 25 nM,CC[C@H]1CN(c2ncc(C(N)=O)nc2C(F)(F)F)CCN1C1CCN(C(=O)c2ccc(Cl)nc2N)CC1 [compound 121]
24,< 25 nM,CC[C@H]1CN(c2ncc(C(=O)NC)nc2Cl)CCN1C1CCN(C(=O)c2ccc(Cl)nc2N)CC1 [compound 122]
25,< 25 nM,CC[C@H]1CN(c2ncc(C(=O)NC(C)C)nc2C)CCN1C1CCN(C(=O)c2ccc(Cl)nc2N)CC1 [compound 123]

row,IC50,Structure (SMILES)
1,< 25 nM,CC[C@H]1CN(c2ncc(C(=O)NCCO)nc2C)CCN1C1CCN(C(=O)c2ccc(Cl)nc2N)CC1 [compound 124]
2,< 25 nM,CC[C@H]1CN(c2ncc(C(=O)NCCO)nc2Cl)CCN1C1CCN(C(=O)c2ccc(Cl)nc2N)CC1 [compound 125]
3,< 25 nM,CCNC(=O)c1cnc(N2CCN(C3CCN(C(=O)c4ccc(Cl)nc4N)CC3)[C@@H](CC)C2)c(C)n1 [compound 126]
4,< 25 nM,CC[C@H]1CN(c2ncc(C(N)=O)nc2C)[C@H](C)CN1C1CCN(C(=O)c2ccc(Cl)nc2N)CC1 [compound 128]
5,< 25 nM,CC[C@H]1CN(c2ncc(C(N)=O)nc2C)CCN1C1CCN(C(=O)c2ccc(Cl)nc2N)CC1 [compound 129]
6,< 25 nM,CC[C@H]1CN(c2nc(N)c(C(=O)Nc3ccncc3)nc2Cl)CCN1C1CCN(C(=O)c2ccc(Cl)nc2N)CC1 [compound 130]
7,25 to 100 nM,CC[C@H]1CN(c2nc(N)c(C(=O)NC)nc2Cl)CCN1C1CCN(C(=O)c2ccc(OC)nc2N)CC1 [compound 131]
8,25 to 100 nM,CC[C@H]1CN(c2nc(N)c(C(=O)Nc3cc(C)[nH]n3)nc2Cl)CCN1C1CCN(C(=O)c2ccc(Cl)nc2N)CC1 [compound 132]
9,25 to 100 nM,CC[C@H]1CN(c2nc(N)c(C(=O)NCCO)nc2Cl)CCN1C1CCN(C(=O)c2ccc(OC)nc2N)CC1 [compound 133]
10,25 to 100 nM,CC[C@H]1CN(c2nc(N)c(C(=O)NNC(C)=O)nc2Cl)CCN1C1CCN(C(=O)c2ccc(Cl)nc2N)CC1 [compound 134]
11,25 to 100 nM,CC[C@H]1CN(c2nc(N)c(C(N)=O)nc2Cl)CCN1C1CCN(C(=O)c2ccc(OC)nc2N)CC1 [compound 135]
12,> 100 nM,CC[C@H]1CN(c2ncc(C(N)=O)nc2C)CCN1C1CCN(C(=O)c2ccc(C)nc2N)CC1 [compound 136]
13,> 100 nM,CC[C@H]1CN(c2nc(N)c(C(=O)N(C)OC)nc2Cl)CCN1C1CCN(C(=O)c2ccc(Cl)nc2N)CC1 [compound 137]
14,> 100 nM,CC[C@H]1CN(c2nc(N)c(C(=O)NCCO)nc2Cl)CCN1C1CCN(C(=O)c2ccc(C)nc2Cl)CC1 [compound 138]
15,> 100 nM,CC[C@H]1CN(c2nc(N)c(C(=O)NC3CC3)nc2Cl)CCN1C1CCN(C(=O)c2sc(C)nc2C)CC1 [compound 139]
16,< 25 nM,CC[C@H]1CN(c2nc(N)c(C(=O)NC)nc2Cl)CCN1C1CCN(Cc2coc3ccc(Cl)cc3c2=O)CC1 [compound 140]
17,< 25 nM,CC[C@H]1CN(c2nc(N)c(C(=O)NC3CC3)nc2Cl)CCN1C1CCN(Cc2cc(-c3ccccc3)oc2C)CC1 [compound 141]
18,> 100 nM,CC[C@H]1CN(c2nc(N)c(C(N)=O)nc2Cl)CCN1C1CCN(Cc2ccc(Cl)c3nc(C(F)(F)F)[nH]c23)CC1 [compound 142]
19,> 100 nM,CC[C@H]1CN(c2nc(N)c(C(N)=O)nc2Cl)CCN1C1CCN(Cc2ccc(Cl)c3[nH]c(=O)[nH]c23)CC1 [compound 143]
20,< 25 nM,CC[C@H]1CN(c2nc(N)c(C(=O)NC)nc2Cl)CCN1C1CCN(Cc2coc3cc(C)c(Cl)cc3c2=O)CC1 [compound 144]
21,> 100 nM,CC[C@H]1CN(c2nc(N)c(C(=O)NC3CC3)nc2Cl)CCN1C1CCN(Cc2cnc(-c3ccccc3)nc2C)CC1 [compound 145]
22,25 to 100 nM,CC[C@H]1CN(c2nc(N)c(C(N)=O)nc2Cl)CCN1C1CCN(C2OC(C(=O)N(C)C)c3cc(Cl)ccc32)CC1 (stereo partly shown) [compound 147]
23,> 100 nM,CC[C@H]1CN(c2nc(N)c(C(=O)NCCO)nc2Cl)CCN1C1CCN(C2CCOc3cc(C#N)ccc32)CC1 (stereo partly shown) [compound 148]
24,< 25 nM,CC[C@H]1CN(c2nc(N)c(C(=O)Nc3ccc(Cl)cc3)nc2Cl)CCN1C1CCN(C(=O)c2ccc(Cl)nc2N)CC1 [compound 149]
